Source: patent EP0423727B1, “Silver halide color photographic material containing colored coupler” (FUJI PHOTO FILM CO., LTD., priority 1989, dated 1991)

Assay: spectral absorption of the colored coupler in methanol
Assay type: physicochemical
Procedure: 10.1 g of compound c synthesized by the method described in U.S. Patent 4,138,258 was dissolved in 60 ml of N,N-dimethylformamide and 60 ml of methyl cellosolve. While cooling the resulting solution with ice, 4.3 ml of concentrated hydrochloric acid was added thereto and a solution of 1.84 g of sodium nitrite in 5 ml of water was added dropwise thereto to prepare a diazonium solution. 60 ml of methyl cellosolve and 20 ml of water were added to 7.8 g of the compound b and 8.2 g of sodium acetate. While stirring the resulting solution under ice cooling, the above diazonium solution was added dropwise thereto. After dropwise addition, the mixture was stirred for one hour and then at room temperature for 2 hours. The precipitated crystal was recovered by filtration, washed with water, dried and dispersed in 500 ml of methanol. The dispersion was heated to reflux for one hour and then allowed to stand to cool it. The crystal was recovered by filtration, washed with methanol and dried to give 13.6 g of the desired coupler (1) as a red crystal with a melting point of 269 to 272°C (decomposition). The structure of the compound was confirmed by ¹HNMR spectrum, mass spectrum and elemental analysis.
75 ml of methyl cellosolve and 26 ml of water were added to 10.1 g of the compound b and 10.7 g of sodium acetate. While stirring the resulting solution under ice cooling, the above diazonium solution was added dropwise thereto. After dropwise addition, the mixture was stirred for one hour and then at room temperature for 2 hours. The precipitated crystal was recovered by filtration and dispersed in 200 ml of methanol. A solution of 2.2 g of sodium hydroxide in 10 ml of water was added dropwise thereto. The mixture was stirred for 3 hours and neutralized with concentrated hydrochloric acid. The precipitated crystal was washed with water and then methanol and dried. The resulting crude crystal was purified from hot methanol in the same manner as in Synthesis Example 1 to give 14.8 g of the desired coupler (3) with a melting point of 246 to 251°C (decomposition). […]

spectral absorption characteristics as a yellow colored coupler: good
maximum absorption wavelength (in methanol): 458.2 nm
molecular extinction coefficient (in methanol): 42800
Compound: CCCCCCCCC(CCCCCC)COCCCNC(=O)c1cc(OCCOc2ccc(N=Nc3c(C)c(C#N)c(=O)n(-c4ccccc4C(=O)O)c3O)cc2)c2ccccc2c1O (stereo not drawn) [(22)]
